In assay [1] the test system is TcdA in C. difficile clnR and clnAB mutants. Kind of assay: TcdA western blot. As to conditions: 2 μg/ml LL-37, TY medium, 24 h, 37°C.
For another assay, the system named is C. difficile 630Δerm. Kind of assay: Growth in minimal medium with LL-37, maximum doubling time. As to conditions: mean ± SD, n ≥ 3.
For assay [2], the system named is C. difficile clnAB Tn::clnRAB. Kind of assay: qRT-PCR of selected RNA-seq transcripts in LL-37. The conditions noted are these: 2 µg/ml LL-37; normalized to 630∆erm in BHIS; mean ± SEM, n ≥ 3. On the technique in general: In qPCR the cycle at which signal appears reflects the starting amount.
The test system of assay [3] is C. difficile clnAB mutant (MC935). Kind of assay: Minimum bactericidal concentration (MBC). Format: cell-based, Clostridioides difficile. The conditions noted are these: 1:10 dilution into BHIS, 24 h, 37°C, anaerobic.

Values after ≈ are worked out from the molar mass of the structure shown.

A word on the MBC: it is the smallest concentration meeting the test's criterion for killing. A low value points to more potent killing. Regarding `CC[C@H](C)[C@H](NC(=O)[C@H](CCCCN)NC(=O)[C@H](CCC(=O)O)NC(=O)[C@H](CCCCN)NC(=O)[C@H](CO)NC(=O)[C@H](CCCCN)NC(=O)[C@H](CCCNC(=N)N)NC(=O)[C@H](Cc1ccccc1)NC(=O)[C@H](Cc1ccccc1)NC(=O)[C@H](CC(=O)O)NC(=O)CNC(=O)[C@H](CC(C)C)NC(=O)[C@@H](N)CC(C)C)C(=O)NCC(=O)N[C@@H](CCCCN)C(=O)N[C@@H](CCC(=O)O)C(=O)N[C@@H](Cc1ccccc1)C(=O)N[C@@H](CCCCN)C(=O)N[C@@H](CCCNC(=N)N)C(=O)N[C@H](C(=O)N[C@H](C(=O)N[C@@H](CCC(N)=O)C(=O)N[C@@H](CCCNC(=N)N)C(=O)N[C@H](C(=O)N[C@@H](CCCCN)C(=O)N[C@@H](CC(=O)O)C(=O)N[C@@H](Cc1ccccc1)C(=O)N[C@@H](CC(C)C)C(=O)N[C@@H](CCCNC(=N)N)C(=O)N[C@@H](CC(N)=O)C(=O)N[C@@H](CC(C)C)C(=O)N[C@H](C(=O)N1CCC[C@H]1C(=O)N[C@@H](CCCNC(=N)N)C(=O)N[C@H](C(=O)N[C@@H](CCC(=O)O)C(=O)N[C@@H](CO)C(=O)O)[C@@H](C)O)C(C)C)[C@@H](C)CC)C(C)C)[C@@H](C)CC` [LL-37], the “TcdA levels (in words)” value in assay [1] is listed as “TcdA levels did not change”. Besides, the Doubling time with C. difficile 630Δerm (0.5 µg/ml LL-37, MM + 30 mM NAG, § p < 0.05 vs no LL-37) turned out to be 91.5 ± 5.7 min; in the assay with C. difficile 630Δerm (0.5 µg/ml LL-37, MM + 30 mM ethanolamine), 90.7 ± 7.9 min; in the assay with C. difficile 630Δerm (0.5 µg/ml LL-37, MM + 30 mM fructose) it was 70.2 ± 3.9 min; in the assay on C. difficile 630Δerm (0.5 µg/ml LL-37, MM + 30 mM glucose), 67.7 ± 4.9 min; in the assay on C. difficile 630Δerm (0.5 µg/ml LL-37, MM + 30 mM mannitol), 69.9 ± 3.4 min; in the assay on C. difficile 630Δerm (0.5 µg/ml LL-37, MM + 30 mM mannose) it was 70.3 ± 5.5 min. In the assay with C. difficile 630Δerm (0.5 µg/ml LL-37, base MM), this compound had a Doubling time of 82.2 ± 5.1 min. In assay [2], the “cstA (CD630_26000) relative expression” value was 1.3 ± 0.2. The “grdA (CD630_23520) relative expression” value in assay [2] is reported as 1.6 ± 0.2. Also, in assay [2], the “mtlA (CD630_23340) relative expression” value came out at 0.7 ± 0.4. The “sigT (csfT; CD630_06770) relative expression” value in assay [2] amounted to 1.2 ± 0.2. Further, in assay [2], the “sigU (csfU; CD630_18870) relative expression” value worked out at 0.8 ± 0.1. In assay [2], the “vanZ1 (CD630_12400) relative expression” value came out at 0.6 ± 0.1. Further, in assay [3], the minimal bactericidal concentration (MBC) stood at 20 µg/mL (≈ 4.45 µM).

For the origin of these results see PMC6117091, “The C. difficile clnRAB operon initiates adaptations to the host environment in response to LL-37” (PLoS Pathogens, 2018).
